# Key:
# ABUTH (Velvetleaf) = assay: Postemergence herbicidal evaluation; format: in vivo, Abutilon theophrasti; conditions: postemergence
# Summary of the method: (§1)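 ~2-wk seedlings; postemergence spray, 40 psi; vehicle 1:1 acetone:water + 0.5% Tween 20; rate ≈0.0156–0.500 kg/ha; greenhouse hold; scored 4–5 wk after treatment, 0–9 scale vs control; repeat tests averaged.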
# AMBEL (Ragweed, Common) = assay: Postemergence herbicidal evaluation; format: in vivo, Ambrosia artemisifolia; conditions: postemergence
# Summary of the method: as §1
# [1] = tested on: IPOHE (Morningglory, Ivyleaf); assay: Postemergence herbicidal evaluation; format: in vivo, Ipomoea hederacea; conditions: postemergence
# Summary of the method: as §1
# ECHCG (Barnyardgrass) [2] = assay: Postemergence herbicidal evaluation; format: in vivo, Echinochloa crus-galli; conditions: postemergence
# Summary of the method: as §1
# SETVI (Foxtail, Green) = assay: Postemergence herbicidal evaluation; format: in vivo, Setaria viridis; conditions: postemergence
# Summary of the method: as §1
# [3] = tested on: GLXMAW (Soybean, Williams); assay: Postemergence herbicidal evaluation; format: in vivo, Glycine max, (L.) Merr. cv Williams; conditions: postemergence
# Summary of the method: as §1
# [4] = tested on: TRZAWR (Wheat, Winter, cv Riband); assay: Postemergence herbicidal evaluation; format: in vivo, Triticum aestivum; conditions: postemergence
# Summary of the method: as §1
# CASOB (Sicklepod) = assay: Preemergence herbicidal evaluation; format: in vivo, Cassia obtusifolia; conditions: rated 4-5 weeks after treatment
# Summary of the method: (§2)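 Rating at 4–5 wk post-spray on a 0–9 visual scale vs control. Application: aqueous acetone, ~0.0156–0.500 kg/ha, to soil surface after seeding, preemergence.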
# [5] = tested on: CHEAL (Lambsquarters, Common); assay: Preemergence herbicidal evaluation; format: in vivo, Chenopodium album; conditions: rated 4-5 weeks after treatment
# Summary of the method: as §2
# GALAP (Galium) = assay: Preemergence herbicidal evaluation; format: in vivo, Galium aparine; conditions: rated 4-5 weeks after treatment
# Summary of the method: as §2
# [6] = tested on: IPOHE (Morningglory, Ivyleaf); assay: Preemergence herbicidal evaluation; format: in vivo, Ipomoea hederacea; conditions: rated 4-5 weeks after treatment
# Summary of the method: as §2
# ECHCG (Barnyardgrass) [7] = assay: Preemergence herbicidal evaluation; format: in vivo, Echinochloa crus-galli; conditions: rated 4-5 weeks after treatment
# Summary of the method: as §2
# ZEAMX (Corn, Field) = assay: Preemergence herbicidal evaluation; format: in vivo, Zea mays; conditions: rated 4-5 weeks after treatment
# Summary of the method: as §2
# [8] = tested on: ECHORC (Watergrass (Calif.)); assay: Postemergence weed control under flooded paddy conditions; format: in vivo, Echinochloa oryzoides; conditions: postemergence weeds, 3-4 weeks after treatment
# Summary of the method: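 With weeds 3 to 5 cm tall and rice at the 1.5 to 2.5 leaf stage, containers were flooded and water held 1.5 to 3 cm above soil. Compounds in 50/50 v/v aqueous/acetone went into the flood water at about 0.0313 to 0.500 kg/ha a.i. Effects were visually rated 0–9 against controls after three to four weeks in the greenhouse.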
smiles,measurement,setting,value
"CCOC(=O)CN1C(=O)C(=Cc2ccc(F)cc2)SC1=Nc1cc(-n2c(=O)cc(C(F)(F)F)n(C)c2=O)c(F)cc1Cl [Compound 21, Ethyl 2-{{2-chloro-5-[3,6-dihydro-3-methyl-2,6-dioxo-4-(trifluoromethyl)-1(2H)-pyrimidinyl]-4-fluorophenyl}imino}-5-(p-fluorobenzylidene)-4-oxo-3-thiazolidineacetate]",ABUTH herbicidal rating,ABUTH (Velvetleaf); rate 0.0158 kg/ha,4.0
same,ABUTH herbicidal rating,ABUTH (Velvetleaf); rate 0.0315 kg/ha,7.0
same,ABUTH herbicidal rating,ABUTH (Velvetleaf); rate 0.0630 kg/ha,9.0
same,AMBEL herbicidal rating,"AMBEL (Ragweed, Common); rate 0.0158 kg/ha",4.0
same,AMBEL herbicidal rating,"AMBEL (Ragweed, Common); rate 0.0315 kg/ha",4.0
same,AMBEL herbicidal rating,"AMBEL (Ragweed, Common); rate 0.0630 kg/ha",6.0
same,IPOHE herbicidal rating,[1]; rate 0.0158 kg/ha,1.0
same,IPOHE herbicidal rating,[1]; rate 0.0315 kg/ha,2.0
same,IPOHE herbicidal rating,[1]; rate 0.0630 kg/ha,9.0
same,ECHCG herbicidal rating,ECHCG (Barnyardgrass) [2]; rate 0.0158 kg/ha,1.0
same,ECHCG herbicidal rating,ECHCG (Barnyardgrass) [2]; rate 0.0315 kg/ha,2.0
same,ECHCG herbicidal rating,ECHCG (Barnyardgrass) [2]; rate 0.0630 kg/ha,2.0
same,SETVI herbicidal rating,"SETVI (Foxtail, Green); rate 0.0158 kg/ha",0.0
same,SETVI herbicidal rating,"SETVI (Foxtail, Green); rate 0.0315 kg/ha",2.0
same,SETVI herbicidal rating,"SETVI (Foxtail, Green); rate 0.0630 kg/ha",2.0
same,GLXMAW herbicidal rating,[3]; rate 0.0158 kg/ha,2.0
same,GLXMAW herbicidal rating,[3]; rate 0.0315 kg/ha,2.5
same,GLXMAW herbicidal rating,[3]; rate 0.0630 kg/ha,4.5
same,TRZAWR herbicidal rating,[4]; rate 0.0158 kg/ha,2.5
same,TRZAWR herbicidal rating,[4]; rate 0.0315 kg/ha,3.5
same,TRZAWR herbicidal rating,[4]; rate 0.0630 kg/ha,3.5
same,CASOB preemergence herbicidal rating,CASOB (Sicklepod); rate 0.2500 kg/ha,0.0
same,CHEAL preemergence herbicidal rating,[5]; rate 0.2500 kg/ha,9.0
same,GALAP preemergence herbicidal rating,GALAP (Galium); rate 0.2500 kg/ha,0.0
same,IPOHE preemergence herbicidal rating,[6]; rate 0.2500 kg/ha,0.0
same,ECHCG preemergence herbicidal rating,ECHCG (Barnyardgrass) [7]; rate 0.2500 kg/ha,0.0
same,ZEAMX preemergence herbicidal rating,"ZEAMX (Corn, Field); rate 0.2500 kg/ha",0.0
same,Herbicidal rating ECHORC,[8]; rate 0.1160 kg/ha,2.0
same,Herbicidal rating ECHORC,[8]; rate 0.2310 kg/ha,4.0
same,Herbicidal rating ECHORC,[8]; rate 0.4630 kg/ha,5.0
C=CCN1C(=O)CSC1=Nc1cc(-n2c(=O)cc(C(F)(F)F)n(C)c2=O)c(F)cc1Cl [Compound 27],ABUTH herbicidal rating,ABUTH (Velvetleaf); rate 0.0158 kg/ha,9.0
same,ABUTH herbicidal rating,ABUTH (Velvetleaf); rate 0.0315 kg/ha,9.0
same,ABUTH herbicidal rating,ABUTH (Velvetleaf); rate 0.0630 kg/ha,9.0
same,AMBEL herbicidal rating,"AMBEL (Ragweed, Common); rate 0.0158 kg/ha",4.0
same,AMBEL herbicidal rating,"AMBEL (Ragweed, Common); rate 0.0315 kg/ha",5.0
same,AMBEL herbicidal rating,"AMBEL (Ragweed, Common); rate 0.0630 kg/ha",7.0
same,IPOHE herbicidal rating,[1]; rate 0.0158 kg/ha,9.0
same,IPOHE herbicidal rating,[1]; rate 0.0315 kg/ha,9.0
same,IPOHE herbicidal rating,[1]; rate 0.0630 kg/ha,9.0
same,ECHCG herbicidal rating,ECHCG (Barnyardgrass) [2]; rate 0.0158 kg/ha,2.0
same,ECHCG herbicidal rating,ECHCG (Barnyardgrass) [2]; rate 0.0315 kg/ha,2.0
same,ECHCG herbicidal rating,ECHCG (Barnyardgrass) [2]; rate 0.0630 kg/ha,1.0
same,SETVI herbicidal rating,"SETVI (Foxtail, Green); rate 0.0158 kg/ha",2.0
same,SETVI herbicidal rating,"SETVI (Foxtail, Green); rate 0.0315 kg/ha",4.0
same,SETVI herbicidal rating,"SETVI (Foxtail, Green); rate 0.0630 kg/ha",9.0
same,GLXMAW herbicidal rating,[3]; rate 0.0158 kg/ha,6.0
same,GLXMAW herbicidal rating,[3]; rate 0.0315 kg/ha,6.5
same,GLXMAW herbicidal rating,[3]; rate 0.0630 kg/ha,7.5
same,TRZAWR herbicidal rating,[4]; rate 0.0158 kg/ha,3.0
same,TRZAWR herbicidal rating,[4]; rate 0.0315 kg/ha,4.0
same,TRZAWR herbicidal rating,[4]; rate 0.0630 kg/ha,4.5
same,Preemergence herbicidal rating CASOB,CASOB (Sicklepod); rate 0.0156 kg/ha,0.0
same,Preemergence herbicidal rating CASOB,CASOB (Sicklepod); rate 0.0313 kg/ha,0.0
same,Preemergence herbicidal rating CASOB,CASOB (Sicklepod); rate 0.0625 kg/ha,0.0
same,Preemergence herbicidal rating CASOB,CASOB (Sicklepod); rate 0.1250 kg/ha,0.0
same,Preemergence herbicidal rating CASOB,CASOB (Sicklepod); rate 0.2500 kg/ha,0.0
same,Preemergence herbicidal rating CHEAL,[5]; rate 0.0156 kg/ha,0.0
same,Preemergence herbicidal rating CHEAL,[5]; rate 0.0313 kg/ha,9.0
same,Preemergence herbicidal rating CHEAL,[5]; rate 0.0625 kg/ha,9.0
same,Preemergence herbicidal rating CHEAL,[5]; rate 0.1250 kg/ha,9.0
same,Preemergence herbicidal rating CHEAL,[5]; rate 0.2500 kg/ha,9.0
same,Preemergence herbicidal rating GALAP,GALAP (Galium); rate 0.0156 kg/ha,0.0
same,Preemergence herbicidal rating GALAP,GALAP (Galium); rate 0.0313 kg/ha,9.0
same,Preemergence herbicidal rating GALAP,GALAP (Galium); rate 0.0625 kg/ha,9.0
same,Preemergence herbicidal rating GALAP,GALAP (Galium); rate 0.1250 kg/ha,9.0
same,Preemergence herbicidal rating GALAP,GALAP (Galium); rate 0.2500 kg/ha,9.0
same,Preemergence herbicidal rating IPOHE,[6]; rate 0.0156 kg/ha,0.0
same,Preemergence herbicidal rating IPOHE,[6]; rate 0.0313 kg/ha,0.0
same,Preemergence herbicidal rating IPOHE,[6]; rate 0.0625 kg/ha,8.0
same,Preemergence herbicidal rating IPOHE,[6]; rate 0.1250 kg/ha,9.0
same,Preemergence herbicidal rating IPOHE,[6]; rate 0.2500 kg/ha,9.0
same,Preemergence herbicidal rating ECHCG,ECHCG (Barnyardgrass) [7]; rate 0.0156 kg/ha,0.0
same,Preemergence herbicidal rating ECHCG,ECHCG (Barnyardgrass) [7]; rate 0.0313 kg/ha,8.0
same,Preemergence herbicidal rating ECHCG,ECHCG (Barnyardgrass) [7]; rate 0.0625 kg/ha,9.0
same,Preemergence herbicidal rating ECHCG,ECHCG (Barnyardgrass) [7]; rate 0.1250 kg/ha,9.0
same,Preemergence herbicidal rating ECHCG,ECHCG (Barnyardgrass) [7]; rate 0.2500 kg/ha,9.0
same,Preemergence herbicidal rating ZEAMX,"ZEAMX (Corn, Field); rate 0.0156 kg/ha",0.0
same,Preemergence herbicidal rating ZEAMX,"ZEAMX (Corn, Field); rate 0.0313 kg/ha",7.0
same,Preemergence herbicidal rating ZEAMX,"ZEAMX (Corn, Field); rate 0.0625 kg/ha",8.0
same,Preemergence herbicidal rating ZEAMX,"ZEAMX (Corn, Field); rate 0.1250 kg/ha",9.0
same,Preemergence herbicidal rating ZEAMX,"ZEAMX (Corn, Field); rate 0.2500 kg/ha",9.0
same,Herbicidal rating ECHORC,[8]; rate 0.0313 kg/ha,6.0
same,Herbicidal rating ECHORC,[8]; rate 0.0625 kg/ha,7.0
same,Herbicidal rating ECHORC,[8]; rate 0.1250 kg/ha,9.0
same,Herbicidal rating ECHORC,[8]; rate 0.2500 kg/ha,9.0
